22 compounds from patent publication US20250248973A1, “CANNABINOID RECEPTOR 1 ANTAGONISTS/INVERSE AGONISTS AND USES THEREOF” (Corbus Pharmaceuticals, Inc., priority 2022, published 2025) can be followed below.

The target of assay [1] is Human CB1 Receptor-1b (hCB1b) (Homo sapiens (Human), UniProt P21554). The experiment in a line: hCB1b Gai cyclic AMP (cAMP) TR-FRET assay, antagonism of EC80 CP55940 with forskolin. Format: cell-based. The following applies: hCB1b cells, 30 min pre-incubation, read-out: CB1b IC50. As for the experimental part:
(§1) Example 3. Biochemical Methods Human CB1 Receptor-1 (hCB1) and Human CB1 Receptor-1b (hCBib)
(§2) hCB1/hCB1 b Gai Cyclic AMP (cAMP) Assays: Cells were seeded in a 384-well plate at an appropriate density from frozen cells. The cAMP assays were performed according to the manufacturer's protocol using MULTISCREEN™ TR-FRET cAMP 1.0 No Wash Assay Kit. Cells (hCB1 or hCB1 b) were pre-incubated with customer compounds for 30 minutes at rt followed by addition of EC80 CP55940 concentration and Forskolin. Cells were then incubated for 20 minutes at 37C. The reaction was terminated by sequentially adding sequentially adding MULTISCREEN™ Eu-labeled cAMP and MULTISCREEN™ 650-labeled anti-cAMP antibody in lysis buffer. The plate was then incubated at rt for 30 minutes before reading fluorescent emissions at 620 nm and 665 with excitation at 314 nm on FlexStation III (Molecular Devices). The results are shown in Table 2 (“***” denotes an IC50<100 nM; “**” denotes an IC50 between 100 nM and 500 nM, and “*” denotes an IC50>500 nM).
(In general: In TR-FRET formats the signal depends on donor and acceptor labels being close together.)

For assay [2], the target named is Human CB1 Receptor-1 (hCB1) (Homo sapiens (Human), UniProt P21554). The experiment in a line: hCB1 Gai cyclic AMP (cAMP) TR-FRET assay, antagonism of EC80 CP55940 with forskolin. Format: cell-based. The following applies: hCB1 cells, 30 min pre-incubation. As for the experimental part: as §1, §2
Chain of Human CB1 Receptor-1 (hCB1) (P21554 whole entry): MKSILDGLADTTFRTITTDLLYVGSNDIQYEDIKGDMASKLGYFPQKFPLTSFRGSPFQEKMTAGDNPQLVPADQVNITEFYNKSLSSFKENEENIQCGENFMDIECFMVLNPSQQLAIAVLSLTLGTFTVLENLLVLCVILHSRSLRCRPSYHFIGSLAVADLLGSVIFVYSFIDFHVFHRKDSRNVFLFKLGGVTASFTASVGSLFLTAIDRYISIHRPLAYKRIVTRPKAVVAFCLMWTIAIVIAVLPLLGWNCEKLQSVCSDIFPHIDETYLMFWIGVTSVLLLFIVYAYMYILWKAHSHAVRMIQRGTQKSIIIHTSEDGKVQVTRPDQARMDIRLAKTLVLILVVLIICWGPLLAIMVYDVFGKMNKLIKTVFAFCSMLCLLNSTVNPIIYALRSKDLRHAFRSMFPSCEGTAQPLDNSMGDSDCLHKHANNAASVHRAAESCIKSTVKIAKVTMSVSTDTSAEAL

pIC50: −log10 of the molar value.

Chain of Human CB1 Receptor-1b (hCB1b) (P21554 other isoform, or with tags, fused parts or gaps): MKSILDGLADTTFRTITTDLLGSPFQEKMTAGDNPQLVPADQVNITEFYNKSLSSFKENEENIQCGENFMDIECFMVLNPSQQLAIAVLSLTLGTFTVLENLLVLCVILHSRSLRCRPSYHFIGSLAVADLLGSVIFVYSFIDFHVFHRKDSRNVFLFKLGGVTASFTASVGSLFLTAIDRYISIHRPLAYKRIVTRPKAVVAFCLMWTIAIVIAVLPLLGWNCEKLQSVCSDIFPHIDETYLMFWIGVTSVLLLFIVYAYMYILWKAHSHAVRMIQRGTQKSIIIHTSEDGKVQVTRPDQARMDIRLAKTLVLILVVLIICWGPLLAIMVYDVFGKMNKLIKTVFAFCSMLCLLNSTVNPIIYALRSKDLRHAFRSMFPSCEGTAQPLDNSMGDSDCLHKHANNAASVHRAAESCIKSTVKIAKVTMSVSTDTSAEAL

As usually defined, the pIC50 is the IC50 on a negative log10 scale, so that one unit is a factor of ten. Turning to `C[C@H](CN/C(=N\S(=O)(=O)c1ccc(C(F)(F)F)cc1)N1C[C@H](c2ccccc2)C(c2ccc(Cl)cc2)=N1)S(N)(=O)=O` [Compound 17, (S,E)-3-(4-chlorophenyl)-4-phenyl-N-((R)-2-sulfamoylpropyl)-N′-((4-(trifluoromethyl)phenyl)sulfonyl)-4,5-dihydro-1H-pyrazole-1-carboximidamide], the pIC50 was below 6.30 in assay [1] and above 7.00 in assay [2].

For `C[C@@H](CN/C(=N\S(=O)(=O)c1ccc(C(F)(F)F)cc1)N1C[C@H](c2ccccc2)C(c2ccc(Cl)cc2)=N1)S(N)(=O)=O` [Compound 18, (S,E)-3-(4-chlorophenyl)-4-phenyl-N-((S)-2-sulfamoylpropyl)-N′-((4-(trifluoromethyl)phenyl)sulfonyl)-4,5-dihydro-1H-pyrazole-1-carboximidamide], the pIC50 was 6.30 to 7.00 in assay [1] and above 7.00 in assay [2].

`C#Cc1ccc(S(=O)(=O)N=C(NCCS(N)(=O)=O)N2C[C@H](c3ccccc3)C(c3ccc(Cl)cc3)=N2)cc1` [Compound 21, (S)-3-(4-chlorophenyl)-N′-((4-ethynylphenyl)sulfonyl)-4-phenyl-N-(2-sulfamoylethyl)-4,5-dihydro-1H-pyrazole-1-carboximidamide]: the pIC50 in assay [1] and in assay [2] was above 7.00 each time.

Consider `C[C@H](CS(N)(=O)=O)N/C(=N\S(=O)(=O)c1ccc(C(F)(F)F)cc1)N1C[C@H](c2ccccc2)C(c2ccc(Cl)cc2)=N1` [Compound 23, (S,E)-3-(4-chlorophenyl)-4-phenyl-N-((R)-1-sulfamoylpropan-2-yl)-N′-((4-(trifluoromethyl)phenyl)sulfonyl)-4,5-dihydro-1H-pyrazole-1-carboximidamide], for which the pIC50 in assay [1] and in assay [2] was 6.30 to 7.00 in each case.

On to `C[C@@H](CS(N)(=O)=O)N/C(=N\S(=O)(=O)c1ccc(C(F)(F)F)cc1)N1C[C@@H](c2ccccc2)C(c2ccc(Cl)cc2)=N1` [Compound 26, (R,E)-3-(4-chlorophenyl)-4-phenyl-N-((S)-1-sulfamoylpropan-2-yl)-N′-((4-(trifluoromethyl)phenyl)sulfonyl)-4,5-dihydro-1H-pyrazole-1-carboximidamide], for which the pIC50 was 6.30 to 7.00 in assay [1] and above 7.00 in assay [2].

`NS(=O)(=O)CCNC(=NS(=O)(=O)c1cccc(C(F)(F)F)c1)N1C[C@H](c2ccccc2)C(c2ccc(Cl)cc2)=N1` [Compound 27, (S)-3-(4-chlorophenyl)-4-phenyl-N-(2-sulfamoylethyl)-N′-((3-(trifluoromethyl)phenyl)sulfonyl)-4,5-dihydro-1H-pyrazole-1-carboximidamide]: the pIC50 in assay [1] and in assay [2] was above 7.00 each time.

As to `NS(=O)(=O)CCNC(=NS(=O)(=O)c1ccccc1Cl)N1C[C@H](c2ccccc2)C(c2ccc(Cl)cc2)=N1` [Compound 29, (S)-3-(4-chlorophenyl)-N′-((2-chlorophenyl)sulfonyl)-4-phenyl-N-(2-sulfamoylethyl)-4,5-dihydro-1H-pyrazole-1-carboximidamide], the pIC50 in assay [1] and in assay [2] was above 7.00 each time.

For the compound `NS(=O)(=O)CCNC(=NS(=O)(=O)c1cccc(Cl)c1)N1C[C@H](c2ccccc2)C(c2ccc(Cl)cc2)=N1` [Compound 31, (S)-3-(4-chlorophenyl)-N′-((3-chlorophenyl)sulfonyl)-4-phenyl-N-(2-sulfamoylethyl)-4,5-dihydro-1H-pyrazole-1-carboximidamide], the pIC50 in assay [1] and in assay [2] was above 7.00 in each case.

As to `NS(=O)(=O)CCN/C(=N\S(=O)(=O)c1ccc(C(F)(F)F)cc1)N1C[C@H](c2ccccc2)C(c2ccc(F)cc2)=N1` [Compound 43, (S,E)-3-(4-fluorophenyl)-4-phenyl-N-(2-sulfamoylethyl)-N′-((4-(trifluoromethyl)phenyl)sulfonyl)-4,5-dihydro-1H-pyrazole-1-carboximidamide], the pIC50 in assay [1] and in assay [2] was above 7.00 each time.

For the compound `NS(=O)(=O)CCN/C(=N\S(=O)(=O)c1ccc(Cl)cc1)N1C[C@H](c2ccccc2)C(c2ccc(F)cc2)=N1` [Compound 45, (S,E)-N′-((4-chlorophenyl)sulfonyl)-3-(4-fluorophenyl)-4-phenyl-N-(2-sulfamoylethyl)-4,5-dihydro-1H-pyrazole-1-carboximidamide], the pIC50 in assay [1] and in assay [2] was above 7.00 each time.

In the case of `NS(=O)(=O)CCNC(=NS(=O)(=O)c1ccc(F)cc1)N1C[C@H](c2ccccc2)C(c2ccc(F)cc2)=N1` [Compound 51, (S)-3-(4-fluorophenyl)-N′-((4-fluorophenyl)sulfonyl)-4-phenyl-N-(2-sulfamoylethyl)-4,5-dihydro-1H-pyrazole-1-carboximidamide], the pIC50 in assay [1] and in assay [2] was 6.30 to 7.00 throughout.

Regarding `C[C@H](CN/C(=N\S(=O)(=O)c1ccc(F)cc1)N1C[C@H](c2ccccc2)C(c2ccc(F)cc2)=N1)S(N)(=O)=O` [Compound 53, (S,E)-3-(4-fluorophenyl)-N′-((4-fluorophenyl)sulfonyl)-4-phenyl-N-((R)-2-sulfamoylpropyl)-4,5-dihydro-1H-pyrazole-1-carboximidamide], the pIC50 in assay [1] and in assay [2] was above 7.00 in each case.

Regarding `C[C@@H](CN/C(=N\S(=O)(=O)c1ccc(F)cc1)N1C[C@H](c2ccccc2)C(c2ccc(F)cc2)=N1)S(N)(=O)=O` [Compound 54, (S,E)-3-(4-fluorophenyl)-N′-((4-fluorophenyl)sulfonyl)-4-phenyl-N-((S)-2-sulfamoylpropyl)-4,5-dihydro-1H-pyrazole-1-carboximidamide], the pIC50 in assay [1] and in assay [2] was above 7.00 in each case.

As for `C[C@H](CS(N)(=O)=O)N/C(=N\S(=O)(=O)c1ccc(Cl)cc1)N1C[C@H](c2ccccc2)C(c2ccc(F)cc2)=N1` [Compound 57, (S,E)-N′-((4-chlorophenyl)sulfonyl)-3-(4-fluorophenyl)-4-phenyl-N-((R)-1-sulfamoylpropan-2-yl)-4,5-dihydro-1H-pyrazole-1-carboximidamide], the pIC50 in assay [1] and in assay [2] was below 6.30 each time.

For `C#Cc1ccc(S(=O)(=O)N=C(NCCS(N)(=O)=O)N2C[C@H](c3ccccc3)C(c3ccc(F)cc3)=N2)cc1` [Compound 59, (S)-N′-((4-ethynylphenyl)sulfonyl)-3-(4-fluorophenyl)-4-phenyl-N-(2-sulfamoylethyl)-4,5-dihydro-1H-pyrazole-1-carboximidamide], the pIC50 was above 7.00 in assay [1] and 6.30 to 7.00 in assay [2].

Take `NS(=O)(=O)CCNC(=NS(=O)(=O)c1cccnc1)N1C[C@H](c2ccccc2)C(c2ccc(Cl)cc2)=N1` [Compound 65, (S)-3-(4-chlorophenyl)-4-phenyl-N′-(pyridin-3-ylsulfonyl)-N-(2-sulfamoylethyl)-4,5-dihydro-1H-pyrazole-1-carboximidamide]: the pIC50 in assay [1] and in assay [2] was above 7.00 in each case.

With `Cn1cnc(S(=O)(=O)N=C(NCCS(N)(=O)=O)N2C[C@H](c3ccccc3)C(c3ccc(Cl)cc3)=N2)c1` [Compound 67, (S)-3-(4-chlorophenyl)-N′-((1-methyl-1H-imidazol-4-yl)sulfonyl)-4-phenyl-N-(2-sulfamoylethyl)-4,5-dihydro-1H-pyrazole-1-carboximidamide], the pIC50 in assay [1] and in assay [2] was below 6.30 in each case.

In the case of `NS(=O)(=O)CCNC(=NS(=O)(=O)c1cccnc1)N1C[C@H](c2ccccc2)C(c2ccc(F)cc2)=N1` [Compound 69, (S)-3-(4-fluorophenyl)-4-phenyl-N′-(pyridin-3-ylsulfonyl)-N-(2-sulfamoylethyl)-4,5-dihydro-1H-pyrazole-1-carboximidamide], the pIC50 in assay [1] and in assay [2] was below 6.30 each time.

`Cn1ncc(S(=O)(=O)N=C(NCCS(N)(=O)=O)N2C[C@H](c3ccccc3)C(c3ccc(Cl)cc3)=N2)n1` [Compound 73, (S)-3-(4-chlorophenyl)-N′-((2-methyl-2H-1,2,3-triazol-4-yl)sulfonyl)-4-phenyl-N-(2-sulfamoylethyl)-4,5-dihydro-1H-pyrazole-1-carboximidamide]: the pIC50 in assay [1] and in assay [2] was 6.30 to 7.00 throughout.

Consider `CC(C)(CN/C(=N\S(=O)(=O)c1ccc(Cl)cc1)N1C[C@H](c2ccccc2)C(c2ccc(Cl)cc2)=N1)CS(N)(=O)=O` [Compound 87, (S,E)-3-(4-chlorophenyl)-N′-((4-chlorophenyl)sulfonyl)-N-(2,2-dimethyl-3-sulfamoylpropyl)-4-phenyl-4,5-dihydro-1H-pyrazole-1-carboximidamide], for which the pIC50 in assay [1] and in assay [2] was 6.30 to 7.00 in each case.

`NS(=O)(=O)CCCCN/C(=N\S(=O)(=O)c1ccc(Cl)cc1)N1C[C@H](c2ccccc2)C(c2ccc(Cl)cc2)=N1` [Compound 99, (S,E)-3-(4-chlorophenyl)-N′-((4-chlorophenyl)sulfonyl)-4-phenyl-N-(4-sulfamoylbutyl)-4,5-dihydro-1H-pyrazole-1-carboximidamide]: the pIC50 in assay [1] and in assay [2] was below 6.30 each time.

On to `CN(CCS(N)(=O)=O)/C(=N/S(=O)(=O)c1ccc(Cl)cc1)N1C[C@H](c2ccccc2)C(c2ccc(Cl)cc2)=N1` [Compound 109, (S,Z)-3-(4-chlorophenyl)-N′-((4-chlorophenyl)sulfonyl)-N-methyl-4-phenyl-N-(2-sulfamoylethyl)-4,5-dihydro-1H-pyrazole-1-carboximidamide], for which the pIC50 in assay [1] and in assay [2] was below 6.30 throughout.
